Measurements reported in the supplement of paper PMC10307832.

Columns and labels:
Assay in all cases: relative viability (nuclei count vs DMSO), 5 days (fraction); higher = more cells survive
[1] = compound: CCN1C(=O)C2=CC(=C(N=C2N(C1=O)C3CC3)N)C(=O)N + CCNC(=O)c1noc(-c2cc(C(C)C)c(O)cc2O)c1-c1ccc(CN2CCOCC2)cc1 [Luminespib] (partner 0.01 µM)
Summary of the method: (§1)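 Lung cancer cell lines were pin-tool dosed in 1536-well plates on the day after seeding, with either a lone drug or a fixed anchor-drug dose plus five library-drug doses (not always all listed) in √10 steps. Nuclei were counted on 4× images after 5 days. Relative viability is the ratio of treated-well to vehicle-well nuclei counts, with each value a median of duplicate plates.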

[2] = compound: CCN1C(=O)C2=CC(=C(N=C2N(C1=O)C3CC3)N)C(=O)N + CC(C)C[C@H](NC(=O)[C@H](Cc1ccccc1)NC(=O)c1cnccn1)B(O)O [Bortezomib] (partner 0.002 µM)
Summary of the method: as §1

[3] = compound: CCN1C(=O)C2=CC(=C(N=C2N(C1=O)C3CC3)N)C(=O)N + COc1cc2c(Oc3ccc(NC(=O)C4(C(=O)Nc5ccc(F)cc5)CC4)cc3F)ccnc2cc1OCCCN1CCOCC1 [Foretinib] (partner 0.25 µM)
Summary of the method: as §1

[4] = compound: CCN1C(=O)C2=CC(=C(N=C2N(C1=O)C3CC3)N)C(=O)N + Cc1cc(Nc2cc(N3CCN(C)CC3)nc(Sc3ccc(NC(=O)C4CC4)cc3)n2)n[nH]1 [Tozasertib] (partner 0.1 µM)
Summary of the method: as §1

[5] = compound: CCN1C(=O)C2=CC(=C(N=C2N(C1=O)C3CC3)N)C(=O)N + O=C(CCCCCCC(=O)Nc1ccccc1)NO [Vorinostat] (partner 1 µM)
Summary of the method: as §1

Cell Line	relative viability ([1]; first compound 0.253 µM)	relative viability ([1]; first compound 0.8 µM)	relative viability ([1]; first compound 2.53 µM)	relative viability ([1]; first compound 8 µM)	relative viability ([2]; first compound 0.253 µM)	relative viability ([2]; first compound 0.8 µM)	relative viability ([2]; first compound 2.53 µM)	relative viability ([2]; first compound 8 µM)	relative viability ([3]; first compound 0.253 µM)	relative viability ([3]; first compound 0.8 µM)	relative viability ([3]; first compound 2.53 µM)	relative viability ([3]; first compound 8 µM)	relative viability ([4]; first compound 0.253 µM)	relative viability ([4]; first compound 0.8 µM)	relative viability ([4]; first compound 2.53 µM)	relative viability ([4]; first compound 8 µM)	relative viability ([5]; first compound 0.253 µM)	relative viability ([5]; first compound 0.8 µM)	relative viability ([5]; first compound 2.53 µM)	relative viability ([5]; first compound 8 µM)
201T	1.06	1.04	1.02	1.08	1.1	1.07	1.09	1.05	1.01	1.07	1.15	1.2	1.01	0.993	0.973	1.04	0.92	0.982	0.945	0.973
A-427	1.13	1.26	1.24	1.13	0.938	0.963	0.965	0.956	1.13	1.13	1.08	1.21	0.223	0.226	0.208	0.206	0.923	0.926	0.842	0.852
ABC-1	0.869	0.4	0.639	0.518	0.298	0.325	0.312	0.266	1.19	0.873	0.908	1.05	0.17	0.167	0.178	0.149	1.11		1.81	1.11
BEN	0.469	0.427	0.377	0.351	0.951	0.68	1.1	0.697	1.13	0.618	0.69	0.558	0.629	0.528	0.443	0.525	0.608	0.641	0.63	0.625
CAL-12T	0.294	0.792	0.193	0.436	1.11		1.09	1.08	1.09	1.18	1.09	1.01	0.271	0.269	0.282	0.223	0.771	0.642	0.659	0.803
COR-L23	0.697	0.653	0.657	0.765	1	0.944	1.12	0.95	0.91	1.03	1.08	0.947	0.197	0.183	0.164	0.161	0.413	0.393	0.446	0.343
COR-L 105	0.807	0.737	0.623	0.641	0.866	0.709	0.856	0.738	0.748	1.01	0.864	1.01	0.346	0.355	0.403	0.327	0.902	0.779	0.688	0.819
ChaGo-K-1	0.541	0.508	0.636	0.53	1.12	0.87	1.1	1.1	0.873	0.97	0.895	0.948	0.218	0.215	0.221	0.2	0.793	0.764	0.72	0.748
EKVX	0.94	0.952	0.772	0.722	1.18	1.14	1.07	0.901	0.785	0.743	0.875	0.639	0.359	0.494	0.358	0.384	0.881	0.589	0.716	0.594
EMC-BAC-2	1.29	1.08	1.03	1.19	1.12	1.04	0.9	1.06	1.17	1	0.935	1.17	0.319	0.249	0.255	0.304	0.992		0.782	0.67
EPLC-272H	0.253	0.227	0.465	0.445	0.828	0.75	0.827	1	0.84	0.662	0.613	0.686	0.289	0.227	0.229	0.224		0.538	0.411	0.477
H3255	0.834	0.773	0.883	0.932	0.866	0.565	0.934	0.706	0.856	0.802	0.932	1.01	0.606	0.682	0.533	1.3	0.838	0.688	0.819	0.831
HARA	0.706	0.671	0.843	0.929	1.18	1.12	1.11	1.15	0.884	0.989	0.857	0.926	0.12	0.129	0.0936	0.111	0.563	0.5	0.57	0.552
HCC-15	0.231	0.7	0.395	0.452	0.992	1.11	0.979	1	1.1	1.05	1.07	0.985	0.46	0.389	0.385	0.502	0.885	0.785	0.869	0.815
HCC-44	0.934	0.905	1.17	1.04	0.896	0.895	0.879	0.877					0.634	0.965	0.789	0.875	1.13	1.05	1.06	1.04
HCC-78					0.293	0.479	0.463	0.516	0.532		0.582	0.502	0.422		0.289	0.453	0.451	0.437	0.437	0.462
HCC-366					1.03	1	1	0.997		0.91	0.951	0.919		0.0821	0.0697	0.0668	0.363	0.384	0.297	0.277
HCC-827	0.77	0.588	0.459	0.866	1.06	1.11	1.06	0.972	0.982	0.993	0.99	1.06	0.395	0.387	0.457	0.445	0.498	0.709	1	0.819

Cell Line	relative viability ([1]; first compound 0.253 µM)	relative viability ([1]; first compound 0.8 µM)	relative viability ([1]; first compound 2.53 µM)	relative viability ([1]; first compound 8 µM)	relative viability ([2]; first compound 0.253 µM)	relative viability ([2]; first compound 0.8 µM)	relative viability ([2]; first compound 2.53 µM)	relative viability ([2]; first compound 8 µM)	relative viability ([3]; first compound 0.253 µM)	relative viability ([3]; first compound 0.8 µM)	relative viability ([3]; first compound 2.53 µM)	relative viability ([3]; first compound 8 µM)	relative viability ([4]; first compound 0.253 µM)	relative viability ([4]; first compound 0.8 µM)	relative viability ([4]; first compound 2.53 µM)	relative viability ([4]; first compound 8 µM)	relative viability ([5]; first compound 0.253 µM)	relative viability ([5]; first compound 0.8 µM)	relative viability ([5]; first compound 2.53 µM)	relative viability ([5]; first compound 8 µM)
HOP-62	1.03	0.899	0.926	0.945	0.914	0.75	0.754	0.733	1	1.11	1.03	1.03	0.367	0.353	0.382	0.371	0.622	0.71	0.58	0.579
IA-LM					0.826	0.702	0.807	0.817	1.21	1.03	0.963	1.44					0.983	0.873	0.905	1.1
LC-2-ad	0.926	0.938	1.12	1.11	0.922	0.965	1.02	1.07	0.926	0.855	0.986	0.94	0.399	0.507	0.484	0.452	0.663	0.754	0.698	0.721
LCLC-97TM1	0.678	0.845	0.766	0.799	0.873	0.326	1.27	0.625	0.869	0.866	0.86	1.1	0.218	0.166	0.204	0.25	0.711	0.752	0.634	0.773
LCLC-103H	0.916	0.956	0.958	1.12	1.07	0.981	1.05	1.05	0.852	0.721	0.728	0.922	0.468	0.487	0.472	0.48	0.798	0.806	0.761	0.817
LK-2	0.181	0.202	0.175	0.199					1.03	1.11	1.05	1.6	0.184	0.173	0.149	0.161	0.286	0.377	0.307	0.302
LOU-NH91	0.283	0.452	0.379	0.349	0.565	0.502	0.516	0.496	0.847	0.855	0.978	0.916	0.603	0.649	0.635	0.683	0.863	0.848	0.948	0.903
LU99A	0.249	0.259	0.285	0.234	1.25	1.16	1.06	1.19	0.732	0.8	0.789	0.857	0.307	0.277	0.252	0.238	0.471	0.493	0.471	0.469
NCI-H358	0.2	0.377	0.423	0.379					0.704	0.762	0.771	0.676	0.0962	0.114	0.0945	0.119	0.788	0.625	0.628	0.863
NCI-H522	1.19	0.977	1.12	1.05									0.593	0.478	0.496	0.489	0.924	0.81	0.924	1.01
NCI-H1395	0.711	0.599	0.747	0.619					1.01	0.868	0.952	0.991	0.697	0.693	0.722	0.65	0.716	0.549	0.912	0.674
NCI-H1703					0.384	0.383	0.34	0.374	0.393	0.432	0.328	0.372								
NCI-H1792	0.586	0.4	0.541	0.419	0.983	0.861	1.03	1.06												
NCI-H1793		0.183	0.177	0.15						0.612	0.575	0.679		0.375	0.265	0.298	0.665	0.747	0.797	0.805
NCI-H1944	0.795	0.711	0.618	0.723					0.976	0.91	0.843	0.949	0.26	0.266	0.247	0.279	0.641	0.51	0.51	0.553
NCI-H2170	0.686	0.879	0.716	0.746					1.02	1	0.954	0.989	0.752	0.788	0.692	0.632	0.881	0.791	0.869	0.78
SK-MES-1	0.774	0.591	0.793	0.945					0.946	0.876	0.94	0.837	0.902	0.931	0.85	0.918	1.04	1.01	1.04	1.08
SW 900	0.217	0.193	0.174	0.166					1.03	0.996	0.837	1.03	0.553	0.507	0.457	0.446	0.434	0.582	0.524	0.538
